The structures appear in SMILES notation.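 1) Cells in 96-well plates. 2) Compound, 48 h, 5 concentrations. 3) Linear interpolation between surrounding doses. 4) Unreached endpoint = highest concentration. GI50 = concentration required for 50% inhibition of growth. The concentration for full growth arrest is given as TGI.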

The test system of the first assay is HOP-92 NSCLC. The assay can be described thus: NCI anticancer screen, dose series, 48 h.
As for `O=C(/C=C/c1ccncc1)c1cc(Cl)ccc1O`, the GI50 was 4.65 µM and the TGI was 19.6 µM.
Turning to `Nc1ncnc2n[nH]c(Nc3ccc(F)cc3)c12`, the GI50 was 12 µM and the TGI was found to be 87.4 µM.
Regarding `CCN(CC)c1ccc(-c2cc(-c3cc(OC)c(OC)c(OC)c3)nc(N3CCOCC3)c2C#N)cc1`, the GI50 is 0.796 µM and the TGI was found to be 4.42 µM.
Consider `CC(=O)OC1=CC(n2cc(F)c(=O)[nH]c2=O)OC(C)C1=O` (configuration not stated), for which the TGI was above 100 µM.
`NC1(C(=O)OCc2ccccc2)CCCC1` displayed a TGI of 38.4 µM.
Consider `Cc1cc(/C=C/c2ccc3cc(N(C)C)ccc3[n+]2C)c(C)n1-c1ccccc1`, for which the GI50 was 0.193 µM and the TGI was 1.33 µM.
For `Cn1cnc([N+](=O)[O-])c1S(=O)(=O)Oc1cccc2ccccc12` the same measures were 2.6 µM and 11.5 µM.
As to `O=C1c2cc3c(cc2-c2c1c1ccc(F)cc1c(=O)n2CCCNCCO)OCO3`, the GI50 is 0.198 µM and the TGI came out at 0.845 µM.
For `COc1cccc(-c2nc(-c3ccc(NC(=O)C(C)C)cc3)[nH]c2-c2ccnc(Br)c2)c1` the same measures were 3.58 µM and 48.4 µM.
For `C=C1C(=O)O[C@H]2[C@H]1CC/C(COC(=O)c1c[nH]c3ccccc13)=C\CC[C@@]1(C)O[C@@H]21` the same measures were 0.169 µM and 0.45 µM.

The next assay relates to IGROV1 ovarian. The assay can be described thus: NCI anticancer screen, dose series, 48 h.
The compound `CCOC(=O)c1cc2nc3ccccc3c(=O)n2c2ccccc12` gave a TGI above 10 µM.
In the case of `CCN1CCN(c2nc(C)cc(N(CCNc3ccnc4cc(Cl)ccc34)Cc3ccc4c(c3)OCO4)n2)CC1`, the GI50 is 2.36 µM and the TGI amounted to 7.78 µM.
`COc1c(Cl)c(=O)oc2ccc(Cl)cc12` yielded a TGI above 100 µM.
Same read-out and setting: the same measure for `NS(=O)(=O)c1cc(Br)c(N=Nc2ccc(O)c3ncccc23)c(Br)c1`: above 100 µM.
On to `Cc1cc(I)cc(CN(C)CCCN2CCCCC2)c1O`, for which the GI50 is 15.4 µM and the TGI amounted to 32.5 µM.
For `CN(C(=O)c1ccc(C(F)(F)F)cc1)c1ccc(Oc2ccc3c(c2)cc(C(=O)N2CCN(Cc4ccc(OC(F)F)cc4)CC2)n3C)nc1` the same measures were above 100 µM and above 100 µM.
For the compound `CCCCCCCCC/C=C1\CCC(CN2CCOCC2)C1=O` (configuration not stated), the TGI came to 14.8 µM.
The compound `Cc1ccccc1S(=O)(=O)OC1NS(=O)(=O)c2ccccc21` (configuration not stated) registered a TGI above 100 µM.
`O=C(/C=C/c1ccncc1)c1cc(Cl)ccc1O`: the GI50 is 15 µM and the TGI turned out to be 38.5 µM.
For `Nc1ncnc2n[nH]c(Nc3ccc(F)cc3)c12` the same measures were 4.73 µM and 32.1 µM.
For `CCN(CC)c1ccc(-c2cc(-c3cc(OC)c(OC)c(OC)c3)nc(N3CCOCC3)c2C#N)cc1` the same measures were 2.83 µM and above 100 µM.
`CC(=O)OC1=CC(n2cc(F)c(=O)[nH]c2=O)OC(C)C1=O` (configuration not stated): the TGI is above 100 µM.
In turn, `NC1(C(=O)OCc2ccccc2)CCCC1` showed a TGI of 38.8 µM.
With `Cc1cc(/C=C/c2ccc3cc(N(C)C)ccc3[n+]2C)c(C)n1-c1ccccc1`, the GI50 is 0.3 µM and the TGI worked out at 3.92 µM.
For `Cn1cnc([N+](=O)[O-])c1S(=O)(=O)Oc1cccc2ccccc12` the same measures were 2.14 µM and 5.09 µM.
Regarding `COc1cccc(-c2nc(-c3ccc(NC(=O)C(C)C)cc3)[nH]c2-c2ccnc(Br)c2)c1`, the GI50 is 3.55 µM and the TGI was above 100 µM.

The subject of another assay is LOX IMVI melanoma. The assay can be described thus: NCI anticancer screen, dose series, 48 h.
As to `CCOC(=O)c1cc2nc3ccccc3c(=O)n2c2ccccc12`, the TGI was above 10 µM.
For `CCN1CCN(c2nc(C)cc(N(CCNc3ccnc4cc(Cl)ccc34)Cc3ccc4c(c3)OCO4)n2)CC1`, the GI50 was 1.77 µM and the TGI amounted to 3.35 µM.
In the case of `COc1c(Cl)c(=O)oc2ccc(Cl)cc12`, the TGI is above 100 µM.
`NS(=O)(=O)c1cc(Br)c(N=Nc2ccc(O)c3ncccc23)c(Br)c1` displayed a TGI above 100 µM.
In the case of `Cc1cc(I)cc(CN(C)CCCN2CCCCC2)c1O`, the GI50 is 13.5 µM and the TGI was 28.5 µM.
On to `CN(C(=O)c1ccc(C(F)(F)F)cc1)c1ccc(Oc2ccc3c(c2)cc(C(=O)N2CCN(Cc4ccc(OC(F)F)cc4)CC2)n3C)nc1`, for which the GI50 is 0.882 µM and the TGI is above 100 µM.
In turn, `CCCCCCCCC/C=C1\CCC(CN2CCOCC2)C1=O` (configuration not stated) came in with a TGI of 2.02 µM.
Compound `Cc1ccccc1S(=O)(=O)OC1NS(=O)(=O)c2ccccc21` (configuration not stated) had a TGI above 100 µM.
Take `O=C(/C=C/c1ccncc1)c1cc(Cl)ccc1O`: the GI50 is 13.2 µM and the TGI is 29.2 µM.
For `Nc1ncnc2n[nH]c(Nc3ccc(F)cc3)c12` the same measures were 10.1 µM and 34 µM.
Consider `CCN(CC)c1ccc(-c2cc(-c3cc(OC)c(OC)c(OC)c3)nc(N3CCOCC3)c2C#N)cc1`, for which the GI50 was 0.189 µM and the TGI worked out at 0.791 µM.
In turn, `CC(=O)OC1=CC(n2cc(F)c(=O)[nH]c2=O)OC(C)C1=O` (configuration not stated) registered a TGI above 100 µM.
`NC1(C(=O)OCc2ccccc2)CCCC1` showed a TGI of 37.7 µM.
Regarding `Cc1cc(/C=C/c2ccc3cc(N(C)C)ccc3[n+]2C)c(C)n1-c1ccccc1`, the GI50 is 0.121 µM and the TGI was found to be 0.884 µM.
For `Cn1cnc([N+](=O)[O-])c1S(=O)(=O)Oc1cccc2ccccc12` the same measures were 2.04 µM and 5.73 µM.
For `O=C1c2cc3c(cc2-c2c1c1ccc(F)cc1c(=O)n2CCCNCCO)OCO3`, the GI50 was 0.0139 µM and the TGI is 0.0582 µM.
As to `COc1cccc(-c2nc(-c3ccc(NC(=O)C(C)C)cc3)[nH]c2-c2ccnc(Br)c2)c1`, the GI50 was 1.61 µM and the TGI is 3.38 µM.
With `C=C1C(=O)O[C@H]2[C@H]1CC/C(COC(=O)c1c[nH]c3ccccc13)=C\CC[C@@]1(C)O[C@@H]21`, the GI50 was 0.0471 µM and the TGI is 0.312 µM.

(Values after PubChem BioAssay (NCI).)
